From article PMC2745557 (FEBS letters, 2009)

How the values were obtained:
Bombyx AKHR [1] = target: T1, Bombyx AKHR (Bombyx mori, UniProt Q8T6U9); details: compared with AKH1; ref [12]; cited from earlier work
T1 sequence (Q8T6U9 1-405): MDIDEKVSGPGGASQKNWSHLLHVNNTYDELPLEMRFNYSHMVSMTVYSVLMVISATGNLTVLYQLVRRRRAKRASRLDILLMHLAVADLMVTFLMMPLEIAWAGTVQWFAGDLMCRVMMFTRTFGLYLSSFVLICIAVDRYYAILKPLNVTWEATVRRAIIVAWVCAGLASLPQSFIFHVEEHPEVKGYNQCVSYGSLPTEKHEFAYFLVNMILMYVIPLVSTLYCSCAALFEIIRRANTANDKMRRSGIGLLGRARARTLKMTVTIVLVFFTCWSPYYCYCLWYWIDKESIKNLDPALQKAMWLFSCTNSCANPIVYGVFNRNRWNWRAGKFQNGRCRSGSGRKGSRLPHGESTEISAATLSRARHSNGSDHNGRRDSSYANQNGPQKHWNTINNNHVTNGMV

Bombyx AKHR [2] = target: T1, Bombyx AKHR; type: cell-based

Row | Substance | affinity of activation of Bombyx AKHR (Bombyx AKHR [1]) | effect of toxin pre-treatment on cAMP generation (Bombyx AKHR [2])
1 | Heliothis zea hypertrehalosaemic hormone [Hez-HrTH] | higher affinity than that of AKH1 | 
2 | Pertussis toxin [PTX] |  | no effect on cAMP generation
3 | cholera toxin [CTX] |  | remarkable increase in the cellular levels of cAMP
